# Where two headings read alike, the source gives them in different places.
# Assays:
# [1] = tested on: Staphylococcus aureus X1.1; experiment: MIC, standard agar-dilution assay, Staphylococcus aureus X1.1; assay type: cell-based
# [2] = tested on: Staphylococcus aureus V41; experiment: MIC, standard agar-dilution assay, Staphylococcus aureus V41; assay type: cell-based
# [3] = tested on: Staphylococcus aureus X400; experiment: MIC, standard agar-dilution assay, Staphylococcus aureus X400; assay type: cell-based
# [4] = tested on: Staphylococcus aureus S13E; experiment: MIC, standard agar-dilution assay, Staphylococcus aureus S13E; assay type: cell-based
# [5] = tested on: Staphylococcus epidermidis EPI1; experiment: MIC, standard agar-dilution assay, Staphylococcus epidermidis EPI1; assay type: cell-based
# [6] = tested on: Streptococcus pyogenes C203; experiment: MIC, standard agar-dilution assay, Streptococcus pyogenes C203; assay type: cell-based
# [7] = tested on: Streptococcus pneumoniae Park I; experiment: microbe, parasite or virus in culture; assay type: cell-based; conditions: Streptococcus pneumoniae Park I, agar dilution
# [8] = tested on: Streptococcus Group D X66; experiment: MIC, standard agar-dilution assay, Streptococcus Group D X66; assay type: cell-based
# Streptococcus Group 9960 = experiment: MIC, standard agar-dilution assay, Streptococcus Group 9960; assay type: cell-based
# [9] = tested on: Haemophilus influenzae Holt; experiment: MIC, standard agar-dilution assay, Haemophilus influenzae Holt; assay type: cell-based
# [10] = tested on: Haemophilus influenzae R252; experiment: MIC, standard agar-dilution assay, Haemophilus influenzae R252; assay type: cell-based
# Staphylococcus aureus = experiment: MIC, broth-dilution microtiter test, Staphylococcus aureus; assay type: cell-based; conditions: broth-dilution microtiter
# From the text: (§1) The MIC's in Table X were obtained using conventional broth-dilution microtiter tests.
# Streptococcus bovis 80 = experiment: MIC, broth-dilution microtiter test, Streptococcus bovis 80; assay type: cell-based; conditions: Streptococcus bovis 80, broth-dilution microtiter
# From the text: as §1
# [11] = tested on: Pasteurella hemolytica 22C; experiment: MIC, broth-dilution microtiter test, Pasteurella hemolytica 22C; assay type: cell-based; conditions: Pasteurella hemolytica 22C, broth-dilution microtiter
# From the text: as §1
# Mycoplasma gallisepticum [12] = experiment: MIC, broth-dilution microtiter test, Mycoplasma gallisepticum; assay type: cell-based; conditions: Mycoplasma gallisepticum, broth-dilution microtiter
# From the text: as §1
# Mycoplasma hyorhinis = experiment: MIC, broth-dilution microtiter test, Mycoplasma hyorhinis; assay type: cell-based
# From the text: as §1
# [13] = tested on: Streptococcus pyogenes C203; experiment: In vivo protection of mice experimentally infected with S. pyogenes C203; conditions: mice, doses given 1 and 4 hours post-infection; for ED50: Streptococcus pyogenes
# Description: The C-20 modified derivatives of this invention have shown in vivo antimicrobial activity against experimentally-induced infections in laboratory animals. When two doses of test compound were administered to mice experimentally infected with S. pyogenes C203, the activity observed was measured as an ED50 value [effective dose in mg/kg to protect 50% of the test animals: see Warren Wick, et al., J. Bacteriol. 81, 233-235 (1961)].
# Pasteurella multocida = experiment: Subcutaneous treatment of Pasteurella multocida-infected chicks; assay type: in vivo, one-day-old chicks; conditions: 30 mg/kg × 2, 1 and 4 hours post-challenge
# Description: Many of the C-20 modified derivatives of this invention have also shown in vivo antibacterial activity against infections induced by gram-negative bacteria. Tables XII and XIII summarize the results of tests in which illustrative compounds were evaluated against Pasteurella infection in one-day-old chicks. The compounds were administered parenterally or orally after challenge of the chicks with Pasteurella multocida (0.1 ml of a 10^-4 dilution of a twenty-hour tryptose broth culture of an avian P. multocida given subcutaneously). In these tests, unless indicated otherwise, all non-medicated infected chicks died within 24 hours of Pasteurella challenge. In the tests summarized in Table XII the compounds were administered by subcutaneous injection at a dosage of 30 mg/kg, 1 and 4 hours post-challenge of the chicks with P. multocida. In the test summarized in Table XIII the compounds were administered by gavage at 1 and 5 hours post-challenge of the chicks with P. multocida.
# Mycoplasma gallisepticum [14] = experiment: Antimycoplasmal activity in chicks infected with Mycoplasma gallisepticum; assay type: in vivo, two- to three-day-old chicks; conditions: gavage five times, equivalent to 0.5 g/gal; for Number with Antibodies/Number Tested: antibodies to M. gallisepticum; for Number with Antibodies/Number Tested / Number with Air-Sac Lesions/Number Treated: 21 days post-infection
# Description: In these tests infections were induced in chicks by injecting 0.2 ml of a broth culture of M. gallisepticum into the abdominal air sac of two- to three-day-old chicks. The compounds were administered by gavage five times at a dose equivalent to 0.5 g/gal (on the day of challenge once prior to and once following the challenge, two times on the next day and once on the third day). Twenty-one days post-infection, the chicks were weighed, a blood sample was taken, and the chicks were sacrificed. The presence or absence of air-sac lesions was recorded.
# [15] = tested on: Staphylococcus epidermidis EPI2; experiment: MIC, standard agar-dilution assay, Staphylococcus epidermidis EPI2; assay type: cell-based; conditions: Staphylococcus epidermidis EPI2; agar dilution; read-out: MIC
# [16] = tested on: Pasteurella multocida 17E; experiment: MIC, broth-dilution microtiter test, Pasteurella multocida 17E; assay type: cell-based; conditions: Pasteurella multocida 17E; bovine isolate; broth-dilution microtiter; read-out: MIC
# From the text: as §1
# [17] = tested on: Pasteurella multocida 60A; experiment: MIC, broth-dilution microtiter test, Pasteurella multocida 60A; assay type: cell-based; conditions: Pasteurella multocida 60A; avian isolate; broth-dilution microtiter; read-out: MIC
# From the text: as §1
# Mycoplasma synoviae = experiment: MIC, broth-dilution microtiter test, Mycoplasma synoviae; assay type: cell-based; conditions: Mycoplasmopsis synoviae; Mycoplasma synoviae; broth-dilution microtiter; read-out: MIC
# From the text: as §1
# Mycoplasma hyopneumoniae = experiment: MIC, broth-dilution microtiter test, Mycoplasma hyopneumoniae; assay type: cell-based; conditions: Mesomycoplasma hyopneumoniae; Mycoplasma hyopneumoniae; broth-dilution microtiter; read-out: MIC
# From the text: as §1
structure (smiles),measurement,setting,value
"CCC1OC(=O)CC(O)C(C)C(OC2OC(C)C(O)C(N(C)C)C2O)C(CCN=[N+]=[N-])CC(C)C(=O)C=CC(C)=CC1COC1OC(C)C(O)C(OC)C1OC (stereo not shown) [Compound 44, 20-DH-DO-20-Azidodesmycosin]",MIC,"[1]; Staphylococcus aureus X1.1, agar dilution",0.12 µg/mL
same,MIC,"[2]; Staphylococcus aureus V41, penicillin-resistant strain, agar dilution",0.12 µg/mL
same,MIC,"[3]; Staphylococcus aureus X400, methicillin-resistant strain, agar dilution",0.25 µg/mL
same,MIC,"[4]; Staphylococcus aureus S13E, agar dilution",0.12 µg/mL
same,MIC,"[5]; Staphylococcus epidermidis EPI1, agar dilution",0.12 µg/mL
same,MIC,"[6]; Streptococcus pyogenes C203, agar dilution",0.25 µg/mL
same,MIC,[7],2 µg/mL
same,MIC,"[8]; Streptococcus Group D X66, agar dilution",4 µg/mL
same,MIC,"Streptococcus Group 9960; Streptococcus Group 9960, agar dilution",8 µg/mL
same,MIC,"[9]; Haemophilus influenzae Holt, ampicillin-sensitive strain, agar dilution",16 µg/mL
same,MIC,"[10]; Haemophilus influenzae R252, ampicillin-resistant strain, agar dilution",4 µg/mL
same,MIC,Staphylococcus aureus,0.39 µg/mL
same,MIC,Streptococcus bovis 80,6.25 µg/mL
same,MIC,[11],12.5 µg/mL
same,MIC,Mycoplasma gallisepticum [12],0.39 µg/mL
same,MIC,"Mycoplasma hyorhinis; Mycoplasma hyorhinis, broth-dilution microtiter",50 µg/mL
same,"ED50, Oral",[13]; oral,13 mg/kg × 2
same,"ED50, Subcutaneous",[13]; subcutaneous,3.8 mg/kg × 2
same,Number of Deaths/Number Treated,Pasteurella multocida,9/10
same,Number with Antibodies/Number Tested,Mycoplasma gallisepticum [14],9/10
same,Mortality,Mycoplasma gallisepticum [14],0/10
same,Number with Air-Sac Lesions/Number Treated,Mycoplasma gallisepticum [14],7/10
"CCC1OC(=O)CC(O)C(C)C(OC2OC(C)C(O)C(N(C)C)C2O)C(CCOC(=O)COc2ccccc2)CC(C)C(=O)C=CC(C)=CC1COC1OC(C)C(O)C(OC)C1OC (stereo not shown) [Compound 26, 20-DH-20-O-(Phenoxyacetyl)desmycosin]",MIC,"[1]; Staphylococcus aureus, X1.1",0.25 µg/mL
same,MIC,"[2]; Staphylococcus aureus, V41",0.25 µg/mL
same,MIC,"[3]; Staphylococcus aureus, X400",0.5 µg/mL
same,MIC,"[4]; Staphylococcus aureus, S13E",0.25 µg/mL
same,MIC,"[5]; Staphylococcus epidermidis, EPI1",0.25 µg/mL
same,MIC,[15],0.12 µg/mL
same,MIC,"[6]; Streptococcus pyogenes, C203",0.12 µg/mL
same,MIC,[7]; read-out: MIC,0.12 µg/mL
same,MIC,[8],0.5 µg/mL
same,MIC,Streptococcus Group 9960; GROUP9960,0.5 µg/mL
same,MIC,[9]; Haemophilus influenzae,8 µg/mL
same,MIC,"[10]; Haemophilus influenzae, R252",8 µg/mL
same,MIC,Staphylococcus aureus; read-out: MIC,0.39 µg/mL
same,MIC,"Streptococcus bovis 80; Streptococcus equinus, read-out: MIC",1.56 µg/mL
same,MIC,[16],6.25 µg/mL
same,MIC,[17],6.25 µg/mL
same,MIC,[11]; read-out: MIC,12.5 µg/mL
same,MIC,"Mycoplasma gallisepticum [12]; Mycoplasmoides gallisepticum, read-out: MIC",< 0.05 µg/mL
same,MIC,Mycoplasma synoviae,1.56 µg/mL
same,MIC,Mycoplasma hyorhinis; Mycoplasma,50 µg/mL
same,MIC,Mycoplasma hyopneumoniae,0.78 µg/mL
same,ED50,"[13]; C203, sc, subcutaneous, read-out: ED50, Subcutaneous",2.4 mg/kg
same,ED50,"[13]; C203, oral, read-out: ED50, Oral",> 25 mg/kg
same,Number of Deaths/Number Treated,Pasteurella multocida,8/10
same,Number with Antibodies/Number Tested,Mycoplasma gallisepticum [14],7/9
same,Mortality,Mycoplasma gallisepticum [14],1/10
same,Number with Air-Sac Lesions/Number Treated,Mycoplasma gallisepticum [14],5/10
